Measured values from PubChem BioAssay AID328 (DTP/NCI, 2004).
Several values for one entry are separate records, joined by “and”; a condition that tells them apart may be missing. Equal entries are not always repeated. Inconclusive results and toxic doses are left out.

Test system: BDF1 mice, P388 leukemia ip, median survival T/C
Assay: NCI In Vivo Anticancer Drug Screen. Data for tumor model P388 Leukemia (intraperitoneal) in B6D2F1 (BDF1) mice
Conditions: endpoint: median survival time, higher = longer survival
Method in brief: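 Reported as T/C, where T is the survival measurement in dosed animals and C the same measurement in vehicle controls.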

[1] = dose: 12.5 mg/kg/injection, schedule: Q04DX003 (ip), vehicle: water
[2] = dose: 25.0 mg/kg/injection, schedule: Q04DX003 (ip), vehicle: water
[3] = dose: 50.0 mg/kg/injection, schedule: Q04DX003 (ip), vehicle: water
[4] = dose: 100.0 mg/kg/injection, schedule: Q04DX003 (ip), vehicle: water
[5] = dose: 100.0 mg/kg/injection, schedule: Q01DX009 (ip), vehicle: saline with Tween-80
[6] = dose: 200.0 mg/kg/injection, schedule: Q01DX009 (ip), vehicle: saline with Tween-80
[7] = dose: 100.0 mg/kg/injection, schedule: Q04DX003 (ip), vehicle: Klucel (hydroxypropylcellulose) (HPC)
[8] = dose: 400.0 mg/kg/injection, schedule: Q04DX003 (ip), vehicle: Klucel (hydroxypropylcellulose) (HPC)
[9] = dose: 50.0 mg/kg/injection, schedule: Q04DX003 (ip), vehicle: saline with Tween-80
[10] = dose: 100.0 mg/kg/injection, schedule: Q04DX003 (ip), vehicle: saline with Tween-80
[11] = dose: 200.0 mg/kg/injection, schedule: Q04DX003 (ip), vehicle: Klucel (hydroxypropylcellulose) (HPC)
[12] = dose: 50.0 mg/kg/injection, schedule: Q04DX003 (ip), vehicle: saline
[13] = dose: 100.0 mg/kg/injection, schedule: Q04DX003 (ip), vehicle: saline
[14] = dose: 200.0 mg/kg/injection, schedule: Q04DX003 (ip), vehicle: saline

## CC(=O)Oc1ccc(N2C(=O)C3C(C2=O)C2c4ccccc4C3C3CCCCN32)cc1 (configuration not stated) (tested in a mixture with another compound)
dose: 6.25 mg/kg/injection, schedule: Q04DX003 (ip), vehicle: water
  T/C: 97 % of control
[1]
  T/C: 101 % of control
[2]
  T/C: 99 % of control
[3]
  T/C: 101 % of control
[4]
  T/C: 91 % of control

## NC(=O)OCc1c(O)c2c(c(O)c1COC(N)=O)C(=O)C=CC2=O
dose: 12.5 mg/kg/injection, schedule: Q01DX009 (ip), vehicle: water
  T/C: 111 % of control
[1]
  T/C: 100 % of control
dose: 25.0 mg/kg/injection, schedule: Q01DX009 (ip), vehicle: water
  T/C: 92 % of control
[2]
  T/C: 104 % of control
dose: 50.0 mg/kg/injection, schedule: Q01DX009 (ip), vehicle: water
  T/C: 104 % of control
[3]
  T/C: 101 % of control
[4]
  T/C: 100 % of control
dose: 200.0 mg/kg/injection, schedule: Q04DX003 (ip), vehicle: water
  T/C: 102 % of control and 113 % of control
dose: 300.0 mg/kg/injection, schedule: Q04DX003 (ip), vehicle: water
  T/C: 95 % of control
dose: 400.0 mg/kg/injection, schedule: Q04DX003 (ip), vehicle: water
  T/C: 108 % of control

## Nc1nc(N)c(N=O)c(Nc2ccc(Cl)c(Cl)c2)n1
dose: 50.0 mg/kg/injection, schedule: Q01DX009 (ip), vehicle: saline with Tween-80
  T/C: 109 % of control
[5]
  T/C: 109 % of control
[6]
  T/C: 95 % of control

## Clc1cccc(Cl)c1Br
dose: 50.0 mg/kg/injection, schedule: Q04DX003 (ip), vehicle: gum acacia
  T/C: 95 % of control
dose: 100.0 mg/kg/injection, schedule: Q01DX009 (ip), vehicle: Klucel (hydroxypropylcellulose) (HPC)
  T/C: 100 % of control
[7]
  T/C: 88 % of control
dose: 100.0 mg/kg/injection, schedule: Q04DX003 (ip), vehicle: gum acacia
  T/C: 108 % of control
dose: 200.0 mg/kg/injection, schedule: Q01DX009 (ip), vehicle: Klucel (hydroxypropylcellulose) (HPC)
  T/C: 109 % of control
dose: 200.0 mg/kg/injection, schedule: Q04DX003 (ip), vehicle: gum acacia
  T/C: 100 % of control
dose: 400.0 mg/kg/injection, schedule: Q01DX009 (ip), vehicle: Klucel (hydroxypropylcellulose) (HPC)
  T/C: 90 % of control
[8]
  T/C: 115 % of control

## CCCCOc1cc(C(=O)O)ccc1[N+](=O)[O-]
dose: 25.0 mg/kg/injection, schedule: Q04DX003 (ip), vehicle: saline with Tween-80
  T/C: 100 % of control
[9]
  T/C: 100 % of control
[10]
  T/C: 104 % of control

## S=c1nc[nH]c2nc[nH]c12
dose: 12.5 mg/kg/injection, schedule: Q01DX009 (ip), vehicle: saline with Tween-80
  T/C: 104 % of control
dose: 15.0 mg/kg/injection, schedule: Q01DX010 (ip), vehicle: saline
  T/C: 150 % of control
dose: 20.0 mg/kg/injection, schedule: Q01DX010 (ip), vehicle: saline
  T/C: 100 % of control
dose: 20.0 mg/kg/injection, schedule: Q01DX010 (ip), vehicle: water
  T/C: 110 % of control
dose: 25.0 mg/kg/injection, schedule: Q01DX009 (ip), vehicle: saline with Tween-80
  T/C: 113 % of control
dose: 26.0 mg/kg/injection, schedule: Q01DX009 (ip), vehicle: alkali diluted with saline
  T/C: 104 % of control and 107 % of control
dose: 30.0 mg/kg/injection, schedule: Q01DX010 (ip), vehicle: saline
  T/C: 90 % of control and 104 % of control
dose: 40.0 mg/kg/injection, schedule: Q01DX010 (ip), vehicle: saline
  T/C: 100 % of control
dose: 40.0 mg/kg/injection, schedule: Q01DX010 (ip), vehicle: water
  T/C: 110 % of control
dose: 60.0 mg/kg/injection, schedule: Q01DX010 (ip), vehicle: water
  T/C: 110 % of control
dose: 72.0 mg/kg/injection, schedule: Q01DX009 (ip), vehicle: alkali diluted with saline
  T/C: 117 % of control
dose: 80.0 mg/kg/injection, schedule: Q01DX010 (ip), vehicle: saline
  T/C: 104 % of control
dose: 90.0 mg/kg/injection, schedule: Q01DX009 (ip), vehicle: alkali diluted with saline
  T/C: 107 % of control and 111 % of control
dose: 120.0 mg/kg/injection, schedule: Q01DX009 (ip), vehicle: alkali diluted with saline
  T/C: 103 % of control
dose: 120.0 mg/kg/injection, schedule: Q01DX010 (ip), vehicle: saline
  T/C: 109 % of control
dose: 160.0 mg/kg/injection, schedule: Q01DX010 (ip), vehicle: saline
  T/C: 90 % of control

## O=C(Cn1ccc(O)cc1=O)c1cccs1
[5]
  T/C: 97 % of control
[6]
  T/C: 97 % of control
dose: 400.0 mg/kg/injection, schedule: Q01DX009 (ip), vehicle: saline with Tween-80
  T/C: 97 % of control

## C#CCOc1ccccc1/C(Cl)=N/Nc1ccc([N+](=O)[O-])cc1[N+](=O)[O-]
dose: 1.56 mg/kg/injection, schedule: Q01DX009 (ip), vehicle: saline with Tween-80
  T/C: 106 % of control
dose: 3.12 mg/kg/injection, schedule: Q01DX009 (ip), vehicle: saline with Tween-80
  T/C: 97 % of control
dose: 6.25 mg/kg/injection, schedule: Q01DX009 (ip), vehicle: saline with Tween-80
  T/C: 100 % of control

## NS(=O)(=O)c1cc([N+](=O)[O-])ccc1Cl
[7]
  T/C: 100 % of control
[11]
  T/C: 108 % of control

## O=C(Cl)c1cc2ccccc2o1
dose: 100.0 mg/kg/injection, schedule: Q01DX001 (ip), vehicle: saline with Tween-80
  T/C: 91 % of control
dose: 200.0 mg/kg/injection, schedule: Q01DX001 (ip), vehicle: saline with Tween-80
  T/C: 108 % of control
dose: 400.0 mg/kg/injection, schedule: Q01DX001 (ip), vehicle: saline with Tween-80
  T/C: 91 % of control

## CCCCCC[n+]1cccc(C(N)=O)c1
[12]
  T/C: 104 % of control
[13]
  T/C: 100 % of control
[14]
  T/C: 95 % of control

## CC1(C)C2CC3C(=CCCC3C#N)C1C2 (configuration not stated)
[7]
  T/C: 100 % of control
[11]
  T/C: 100 % of control
[8]
  T/C: 100 % of control

## COc1ccc(NC(=O)C(C)C(C)=O)cc1 (configuration not stated)
dose: 12.5 mg/kg/injection, schedule: Q01DX009 (ip), vehicle: saline
  T/C: 91 % of control
dose: 25.0 mg/kg/injection, schedule: Q01DX009 (ip), vehicle: saline
  T/C: 94 % of control
dose: 25.0 mg/kg/injection, schedule: Q04DX003 (ip), vehicle: saline
  T/C: 102 % of control
dose: 50.0 mg/kg/injection, schedule: Q01DX009 (ip), vehicle: saline
  T/C: 98 % of control
[12]
  T/C: 93 % of control
dose: 100.0 mg/kg/injection, schedule: Q01DX009 (ip), vehicle: saline
  T/C: 116 % of control
[13]
  T/C: 100 % of control
dose: 200.0 mg/kg/injection, schedule: Q01DX009 (ip), vehicle: saline
  T/C: 100 % of control
[14]
  T/C: 109 % of control
dose: 400.0 mg/kg/injection, schedule: Q01DX009 (ip), vehicle: saline
  T/C: 108 % of control
dose: 400.0 mg/kg/injection, schedule: Q04DX003 (ip), vehicle: saline
  T/C: 111 % of control

## CCCCCCCCCCCC[n+]1cccc2ccccc21
dose: 0.15 mg/kg/injection, schedule: Q01DX009 (ip), vehicle: saline
  T/C: 100 % of control
dose: 0.17 mg/kg/injection, schedule: Q04DX003 (ip), vehicle: saline
  T/C: 118 % of control
dose: 0.34 mg/kg/injection, schedule: Q01DX009 (ip), vehicle: saline
  T/C: 90 % of control and 122 % of control
dose: 0.35 mg/kg/injection, schedule: Q01DX009 (ip), vehicle: saline
  T/C: 163 % of control
dose: 0.35 mg/kg/injection, schedule: Q04DX003 (ip), vehicle: saline
  T/C: 122 % of control
dose: 0.7 mg/kg/injection, schedule: Q01DX009 (ip), vehicle: saline
  T/C: 157 % of control
dose: 0.7 mg/kg/injection, schedule: Q04DX003 (ip), vehicle: saline
  T/C: 118 % of control

## CC(=O)N=C1C=C(NC(C)=O)C(=O)c2ncccc21
[9]
  T/C: 109 % of control
[10]
  T/C: 122 % of control
dose: 200.0 mg/kg/injection, schedule: Q04DX003 (ip), vehicle: saline with Tween-80
  T/C: 86 % of control

## CC(C)c1ccc2c(c1)CC[C@H]1[C@](C)(CN=C(N)CCl)CCC[C@]21C
dose: 1.56 mg/kg/injection, schedule: Q01DX009 (ip), vehicle: Klucel (hydroxypropylcellulose) (HPC)
  T/C: 110 % of control
dose: 3.13 mg/kg/injection, schedule: Q01DX009 (ip), vehicle: Klucel (hydroxypropylcellulose) (HPC)
  T/C: 112 % of control
dose: 6.25 mg/kg/injection, schedule: Q01DX009 (ip), vehicle: Klucel (hydroxypropylcellulose) (HPC)
  T/C: 114 % of control

## CCCCCCCCCCCC[N+](C)(C)C (tested in a mixture with another compound)
dose: 9.2 mg/kg/injection, schedule: Q01DX009 (ip), vehicle: saline
  T/C: 107 % of control
